Measured values from US20160159789A1, “SUBSTITUTED PYRAZOLOPYRIDINES” (BAYER PHARMA AKTIENGESELLSCHAFT, priority 2013, published 2016).

Target: T1, human full-length MKNK1 (Homo sapiens, UniProt Q9BUB5, T385D)
T1 construct: purchased Carna Biosciences 02-145; host or cells: insect cells (baculovirus expression system)
Experiment: MKNK1 kinase high ATP assay (TR-FRET)
Format: biochemical
Conditions: high ATP (2 mM final), 15 min preincubation with enzyme, GST-MKNK1 (T344D)
Procedure: MKNK1-inhibitory activity at high ATP of compounds of the present invention after their preincubation with MKNK1 was quantified employing the TR-FRET-based MKNK1 high ATP assay as described in the following paragraphs.
A recombinant fusion protein of Glutathione-S-Transferase (GST, N-terminally) and human full-length MKNK1 (amino acids 1-424 and T344D of accession number BAA 19885.1), expressed in insect cells using baculovirus expression system and purified via glutathione sepharose affinity chromatography, was purchased from Carna Biosciences (product no 02-145) and used as enzyme. As substrate for the kinase reaction the biotinylated peptide biotin-Ahx-IKKRKLTRRKSLKG (C-terminus in amide form) was used, which can be purchased e.g. from the company Biosyntan (Berlin-Buch, Germany).
For the assay 50 nL of a 100 fold concentrated solution of the test compound in DMSO was pipetted into a black low volume 384 well microtiter plate (Greiner Bio-One, Frickenhausen, Germany), 2 μL of a solution of MKNK1 in aqueous assay buffer [50 mM HEPES pH 7.5, 5 mM MgCl2, 1.0 mM dithiothreitol, 0.005% (v/v) Nonidet-P40 (Sigma)] was added and the mixture was incubated for 15 min at 22° C. to allow pre-binding of the test compounds to the enzyme before the start of the kinase reaction. Then the kinase reaction was started by the addition of 3 μL of a solution of adenosine-tri-phosphate (ATP, 3.3 mM=> final conc. in the 5 μL assay volume is 2 mM) and substrate (0.1 μM=> final conc. in the 5 μL assay volume is 0.06 μM) in assay buffer and the resulting mixture was incubated for a reaction time of 30 min at 22° C. The concentration of MKNK1 was adjusted depending of the activity of the enzyme lot and was chosen appropriate to have the assay in the linear range, typical concentrations were in the range of 0.003 μg/mL. The reaction was stopped by the addition of 5 μL of a solution of TR-FRET detection reagents (5 nM streptavidine-XL665 [Cisbio Bioassays, Codolet, France] and 1 nM anti-ribosomal protein S6 (pSer236)-antibody from Invitrogen [#44921G] and 1 nM LANCE EU-W1024 labeled ProteinG [Perkin-Elmer, product no. AD0071]) in an aqueous EDTA-solution (100 mM EDTA, 0.1% (w/v) bovine serum albumin in 50 mM HEPES pH 7.5).
The resulting mixture was incubated for 1 h at 22° C. to allow the formation of complex between the phosphorylated biotinylated peptide and the detection reagents. Subsequently the amount of phosphorylated substrate was evaluated by measurement of the resonance energy transfer from the Eu-chelate to the streptavidine-XL. Therefore, the fluorescence emissions at 620 nm and 665 nm after excitation at 350 nm were measured in a TR-FRET reader, e.g. a Rubystar (BMG Labtechnologies, Offenburg, Germany) or a Viewlux (Perkin-Elmer). The ratio of the emissions at 665 nm and at […] was taken as the measure for the amount of phosphorylated substrate. The data were normalised (enzyme reaction without inhibitor=0% inhibition, all other assay components but no enzyme=100% inhibition).

T1 sequence (Q9BUB5 1-424 isoform Q9BUB5-2 T344D): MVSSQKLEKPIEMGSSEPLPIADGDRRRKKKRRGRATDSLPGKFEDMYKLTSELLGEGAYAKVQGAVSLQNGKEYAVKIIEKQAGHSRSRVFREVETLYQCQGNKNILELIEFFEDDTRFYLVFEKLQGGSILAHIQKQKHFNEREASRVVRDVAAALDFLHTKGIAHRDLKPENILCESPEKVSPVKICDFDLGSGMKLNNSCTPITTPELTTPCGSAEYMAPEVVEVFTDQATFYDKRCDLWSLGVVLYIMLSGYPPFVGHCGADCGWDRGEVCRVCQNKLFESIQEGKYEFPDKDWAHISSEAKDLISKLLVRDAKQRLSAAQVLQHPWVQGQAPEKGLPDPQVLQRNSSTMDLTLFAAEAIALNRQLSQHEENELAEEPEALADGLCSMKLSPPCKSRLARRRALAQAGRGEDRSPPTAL

Which IC50 does the source give for `CN(C)C(=O)[C@H]1CCc2c(sc3ncnc(Nc4cnc5[nH]ncc5c4)c23)C1` [Example 59, (7S)—N,N-Dimethyl-4-(1H-pyrazolo[3,4-b]pyridin-5-ylamino)-5,6,7,8-tetrahydro[1]benzothieno[2,3-d]pyrimidine-7-carboxamide] here?
The IC50 was 0.0023 µM.

How did the IC50 turn out when `CN(C)C(=O)[C@H]1CCc2c(sc3ncnc(Nc4cc5cn[nH]c5cn4)c23)C1` [Example 60, (7S)—N,N-Dimethyl-4-(1H-pyrazolo[3,4-c]pyridin-5-ylamino)-5,6,7,8-tetrahydro[1]benzothieno[2,3-d]pyrimidine-7-carboxamide] was run?
The IC50 was 0.0077 µM.

With `O=C(c1[nH]c2ncnc(Nc3cnc4[nH]ncc4c3)c2c1Br)N1CCCCC1` [Example 61, [5-Bromo-4-(1H-pyrazolo[3,4-b]pyridin-5-ylamino)-7H-pyrrolo[2,3-d]pyrimidin-6-yl](piperidin-1-yl)methanone] as the compound, how does the IC50 read?
The IC50 was 0.12 µM.

`COc1nc2[nH]ncc2cc1Nc1ncnc2[nH]c(C(=O)N(C)CCN(C)C)c(Br)c12` [Example 62, 5-Bromo-N-[2-(dimethylamino)ethyl]-4-[(6-methoxy-1H-pyrazolo[3,4-b]pyridin-5-yl)amino]-N-methyl-7H-pyrrolo[2,3-d]pyrimidine-6-carboxamide] was tested. Which IC50 did it give?
Its IC50 is 0.012 µM.

Which IC50 does the source give for `CN(C)CCN(C)C(=O)c1[nH]c2ncnc(Nc3cc4cn[nH]c4nc3O)c2c1Br` [Example 63, 5-Bromo-N-[2-(dimethylamino)ethyl]-4-[(6-hydroxy-1H-pyrazolo[3,4-b]pyridin-5-yl)amino]-N-methyl-7H-pyrrolo[2,3-d]pyrimidine-6-carboxamide] here?
The IC50 was 0.0146 µM.

With `COc1nc2[nH]ncc2cc1Nc1ncnc2[nH]c(C(=O)N3CCC(N(C)C)CC3)c(Br)c12` [Example 64, {5-Bromo-4-[(6-methoxy-1H-pyrazolo[3,4-b]pyridin-5-yl)amino]-7H-pyrrolo[2,3-d]pyrimidin-6-yl}[4-(dimethylamino)piperidin-1-yl]methanone] as the compound, how does the IC50 read?
Its IC50 is 0.0042 µM.

For `CN(C)C1CCN(C(=O)c2[nH]c3ncnc(Nc4cc5cn[nH]c5nc4O)c3c2Br)CC1` [Example 65], which IC50 is on record?
Its IC50 is 0.0028 µM.

With `COc1nc2[nH]ncc2cc1Nc1ncnc2[nH]c(C(=O)N3CCOC[C@H]3C)c(Br)c12` [Example 66] as the compound, how does the IC50 read?
Its IC50 is 0.0083 µM.

How did the IC50 turn out when `COc1nc2[nH]ncc2cc1Nc1ncnc2[nH]c(C(=O)N3CCOCC3)c(Br)c12` [Example 67, {5-Bromo-4-[(6-methoxy-1H-pyrazolo[3,4-b]pyridin-5-yl)amino]-7H-pyrrolo[2,3-d]pyrimidin-6-yl}(morpholin-4-yl)methanone] was run?
The IC50 was 0.0152 µM.

`O=C(c1[nH]c2ncnc(Nc3cc4cn[nH]c4nc3O)c2c1Br)N1CCOCC1` [Example 68] was tested. Which IC50 did it give?
The IC50 was 0.0101 µM.

How did the IC50 turn out when `CN(C)C1CCN(C(=O)c2[nH]c3ncnc(Nc4cc5cn[nH]c5cn4)c3c2Br)CC1` [Example 69, [5-Bromo-4-(1H-pyrazolo[3,4-c]pyridin-5-ylamino)-7H-pyrrolo[2,3-d]pyrimidin-6-yl][4-(dimethylamino)piperidin-1-yl]methanone] was run?
Its IC50 is 0.0198 µM.

With `C[C@@H]1COCCN1C(=O)c1[nH]c2ncnc(Nc3cc4cn[nH]c4cn3)c2c1Br` [Example 70, [5-Bromo-4-(1H-pyrazolo[3,4-c]pyridin-5-ylamino)-7H-pyrrolo[2,3-d]pyrimidin-6-yl][(3R)-3-methylmorpholin-4-yl]methanone] as the compound, how does the IC50 read?
The IC50 was 0.0407 µM.

Which IC50 does the source give for `O=C(c1[nH]c2ncnc(Nc3cc4cn[nH]c4cn3)c2c1Br)N1CCOCC1` [Example 71, [5-Bromo-4-(1H-pyrazolo[3,4-c]pyridin-5-ylamino)-7H-pyrrolo[2,3-d]pyrimidin-6-yl](morpholin-4-yl)methanone] here?
The IC50 was 0.0432 µM.

Which IC50 does the source give for `O=C(c1[nH]c2ncnc(Nc3cc4cn[nH]c4cn3)c2c1Br)N1CCCCC1` [Example 72, [5-Bromo-4-(1H-pyrazolo[3,4-c]pyridin-5-ylamino)-7H-pyrrolo[2,3-d]pyrimidin-6-yl](piperidin-1-yl)methanone] here?
The IC50 was 0.016 µM.

With `C[C@@H]1COCCN1C(=O)c1[nH]c2ncnc(Nc3cnc4[nH]ncc4c3)c2c1Br` [Example 73, [5-Bromo-4-(1H-pyrazolo[3,4-b]pyridin-5-ylamino)-7H-pyrrolo[2,3-d]pyrimidin-6-yl][(3R)-3-methylmorpholin-4-yl]methanone] as the compound, how does the IC50 read?
Its IC50 is 0.144 µM.

How did the IC50 turn out when `O=C(c1[nH]c2ncnc(Nc3cnc4[nH]ncc4c3)c2c1Br)N1CCOCC1` [Example 74, [5-Bromo-4-(1H-pyrazolo[3,4-b]pyridin-5-ylamino)-7H-pyrrolo[2,3-d]pyrimidin-6-yl](morpholin-4-yl)methanone] was run?
Its IC50 is 0.14 µM.

How did the IC50 turn out when `C[C@H]1COCCN1C(=O)c1[nH]c2ncnc(Nc3cnc4[nH]ncc4c3)c2c1Br` [Example 75, [5-Bromo-4-(1H-pyrazolo[3,4-b]pyridin-5-ylamino)-7H-pyrrolo[2,3-d]pyrimidin-6-yl][(3S)-3-methymorpholin-4-yl]methanone] was run?
Its IC50 is 0.061 µM.

With `CN(C)C(=O)CNC(=O)c1cc2c(Nc3cc4cn[nH]c4cn3)ncnc2[nH]1` [Example 76, N-[2-(Dimethylamino)-2-oxoethyl]-4-(1H-pyrazolo[3,4-c]pyridin-5-ylamino)-7H-pyrrolo[2,3-d]pyrimidine-6-carboxamide] as the compound, how does the IC50 read?
Its IC50 is 0.0715 µM.

With `CN(C)CCN(C)C(=O)c1cc2c(Nc3cc4cn[nH]c4cn3)ncnc2[nH]1` [Example 77, N-[2-(Dimethylamino)ethyl]-N-methyl-4-(1H-pyrazolo[3,4-c]pyridin-5-ylamino)-7H-pyrrolo[2,3-d]pyrimidine-6-carboxamide] as the compound, how does the IC50 read?
Its IC50 is 0.0231 µM.

`CN(CCN(C)C(=O)c1cc2c(Nc3cc4cn[nH]c4cn3)ncnc2[nH]1)Cc1ccccc1` [Example 78, N-{2-[Benzyl(methyl)amino]ethyl}-N-methyl-4-(1H-pyrazolo[3,4-c]pyridin-5-ylamino)-7H-pyrrolo[2,3-d]pyrimidine-6-carboxamide] was tested. Which IC50 did it give?
Its IC50 is 0.0074 µM.

`c1ccc(CCc2nc3c(Nc4cc5cn[nH]c5cn4)ncnc3s2)cc1` [Example 79, 2-(2-Phenylethyl)-N-(1H-pyrazolo[3,4-c]pyridin-5-yl)[1,3]thiazolo[5,4-d]pyrimidin-7-amine] was tested. Which IC50 did it give?
Its IC50 is 1.35 µM.

With `CC(C)NC(=O)[C@H]1CCc2c(sc3ncnc(Nc4cc5cn[nH]c5cn4)c23)C1` [Example 80, (7S)—N-(Propan-2-yl)-4-(1H-pyrazolo[3,4-c]pyridin-5-ylamino)-5,6,7,8-tetrahydro[1]benzothieno[2,3-d]pyrimidine-7-carboxamide] as the compound, how does the IC50 read?
Its IC50 is 0.0239 µM.

How did the IC50 turn out when `CCCN(C)C(=O)[C@H]1CCc2c(sc3ncnc(Nc4cc5cn[nH]c5cn4)c23)C1` [Example 81, (7S)—N-Methyl-N-propyl-4-(1H-pyrazolo[3,4-c]pyridin-5-ylamino)-5,6,7,8-tetrahydro[1]benzothieno[2,3-d]pyrimidine-7-carboxamide] was run?
Its IC50 is 0.0161 µM.

With `N#CC1CN(C(=O)[C@H]2CCc3c(sc4ncnc(Nc5cc6cn[nH]c6cn5)c34)C2)C1` [Example 82, 1-{[(7S)-4-(1H-Pyrazolo[3,4-c]pyridin-5-ylamino)-5,6,7,8-tetrahydro[1]benzothieno[2,3-d]pyrimidin-7-yl]carbonyl}azetidine-3-carbonitrile] as the compound, how does the IC50 read?
The IC50 was 0.0032 µM.

`O=C([C@H]1CCc2c(sc3ncnc(Nc4cc5cn[nH]c5cn4)c23)C1)N1CC2(COC2)C1` [Example 83, 2-Oxa-6-azaspiro[3.3]hept-6-yl[(7S)-4-(1H-pyrazolo[3,4-c]pyridin-5-ylamino)-5,6,7,8-tetrahydro[1]benzothieno[2,3-d]pyrimidin-7-yl]methanone] was tested. Which IC50 did it give?
The IC50 was 0.0069 µM.
